# In PubChem BioAssay AID602166 (The Scripps Research Institute Molecular Screening Center, 2012):
# Calls of active or inactive are those of the source. The rule behind the calls is not given here.
# Target: Nuclear receptor coactivator 3 (Homo sapiens) (UniProt Q9Y6Q9)
# Experiment: NCOA3 reporter inhibition potency – cell-based, luminescence, dose response (AID 602166);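 note: potency for reduction of SRC3 reporter signal so compounds are inhibitors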
# Conditions: SRC3 luciferase reporter cell assay
# Nuclear receptor coactivator 3 (Homo sapiens), sequence (Q9Y6Q9 whole entry, looked up): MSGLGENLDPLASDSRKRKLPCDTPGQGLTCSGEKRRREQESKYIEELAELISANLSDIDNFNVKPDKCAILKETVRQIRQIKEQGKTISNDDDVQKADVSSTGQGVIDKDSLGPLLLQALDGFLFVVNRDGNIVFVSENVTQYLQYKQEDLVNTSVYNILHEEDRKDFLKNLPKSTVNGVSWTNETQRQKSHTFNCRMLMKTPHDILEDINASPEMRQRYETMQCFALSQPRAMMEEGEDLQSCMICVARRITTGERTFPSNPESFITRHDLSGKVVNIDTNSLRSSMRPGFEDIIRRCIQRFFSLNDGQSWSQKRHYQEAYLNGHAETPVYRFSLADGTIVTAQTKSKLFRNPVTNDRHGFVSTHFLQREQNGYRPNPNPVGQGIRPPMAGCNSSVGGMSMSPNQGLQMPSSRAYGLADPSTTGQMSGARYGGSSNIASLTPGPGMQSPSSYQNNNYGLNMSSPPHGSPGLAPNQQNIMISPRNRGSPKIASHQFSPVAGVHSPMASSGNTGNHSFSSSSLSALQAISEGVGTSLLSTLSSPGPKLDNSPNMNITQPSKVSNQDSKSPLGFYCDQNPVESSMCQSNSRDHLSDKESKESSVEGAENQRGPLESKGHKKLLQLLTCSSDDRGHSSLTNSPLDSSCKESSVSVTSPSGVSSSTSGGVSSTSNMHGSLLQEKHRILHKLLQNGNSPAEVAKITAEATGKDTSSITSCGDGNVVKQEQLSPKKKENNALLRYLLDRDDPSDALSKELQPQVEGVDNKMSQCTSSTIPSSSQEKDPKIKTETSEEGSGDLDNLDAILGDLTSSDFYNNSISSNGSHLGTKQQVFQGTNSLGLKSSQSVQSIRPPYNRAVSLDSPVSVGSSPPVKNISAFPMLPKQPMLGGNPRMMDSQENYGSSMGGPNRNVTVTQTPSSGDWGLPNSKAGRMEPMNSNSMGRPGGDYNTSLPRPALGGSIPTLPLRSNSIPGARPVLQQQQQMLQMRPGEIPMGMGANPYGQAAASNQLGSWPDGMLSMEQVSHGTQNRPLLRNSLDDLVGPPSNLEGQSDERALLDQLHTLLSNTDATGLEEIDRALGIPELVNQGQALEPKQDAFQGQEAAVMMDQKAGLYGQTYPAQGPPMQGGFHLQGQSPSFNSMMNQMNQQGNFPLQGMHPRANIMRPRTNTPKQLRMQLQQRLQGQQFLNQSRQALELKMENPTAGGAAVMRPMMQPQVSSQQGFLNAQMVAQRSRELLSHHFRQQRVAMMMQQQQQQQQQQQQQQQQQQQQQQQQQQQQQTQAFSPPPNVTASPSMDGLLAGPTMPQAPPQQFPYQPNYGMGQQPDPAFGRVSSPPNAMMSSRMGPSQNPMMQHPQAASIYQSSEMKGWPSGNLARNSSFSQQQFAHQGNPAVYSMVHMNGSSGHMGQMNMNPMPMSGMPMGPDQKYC
row,SMILES,IC50
1,COc1cccc2c1C(=N)c1c(O)c3c(c(O)c1C2=O)CC(O)(C(C)=O)CC3OC1CC(N)C(O)C(C)O1 (stereo unspecified),> 35.9 µM (inactive)
2,NC(=S)N/N=C1\CCOc2ccc(Cl)cc21,6.9 µM
3,O=S(=O)(c1ccc(F)cc1)c1snnc1-c1ccccc1,inactive

# More lines, now with the values ahead:
row,IC50,SMILES
1,> 35.9 µM (inactive),O=C(NC(NC(=S)N1CCOCC1)C(Cl)(Cl)Cl)c1ccc(Cl)cc1 (stereo unspecified)
2,7.74 µM,Nc1ncccc1C(=O)OCC(=O)N1CCN(S(=O)(=O)c2ccc(Cl)cc2)CC1
3,inactive,Cc1ccc(C(=O)Nc2cnc3ccccc3c2)cc1
